Reference: patent publication US12522601B2, “1,3,4-oxadiazole derivative compounds as histone deacetylase 6 inhibitor, and the pharmaceutical composition comprising the same” (CHONG KUN DANG PHARMACEUTICAL CORP., priority 2020, dated 2026)
pIC50: −log10 of the molar value.

Columns and labels:
[1] = target: T1, human recombinant HDAC6 (Homo sapiens, UniProt Q9UBN7); test: In vitro HDAC enzyme activity inhibition assay, HDAC6 (HDAC Fluorimetric Drug Discovery Kit); format: biochemical; conditions: for HDAC6 Selectivity (fold): HDAC6 versus HDAC1; for pIC50: human recombinant HDAC6, same protocol as the HDAC1 test
T1 construct: purchased Calbiochem Inc. 382180
T1 sequence (Q9UBN7 1-1215): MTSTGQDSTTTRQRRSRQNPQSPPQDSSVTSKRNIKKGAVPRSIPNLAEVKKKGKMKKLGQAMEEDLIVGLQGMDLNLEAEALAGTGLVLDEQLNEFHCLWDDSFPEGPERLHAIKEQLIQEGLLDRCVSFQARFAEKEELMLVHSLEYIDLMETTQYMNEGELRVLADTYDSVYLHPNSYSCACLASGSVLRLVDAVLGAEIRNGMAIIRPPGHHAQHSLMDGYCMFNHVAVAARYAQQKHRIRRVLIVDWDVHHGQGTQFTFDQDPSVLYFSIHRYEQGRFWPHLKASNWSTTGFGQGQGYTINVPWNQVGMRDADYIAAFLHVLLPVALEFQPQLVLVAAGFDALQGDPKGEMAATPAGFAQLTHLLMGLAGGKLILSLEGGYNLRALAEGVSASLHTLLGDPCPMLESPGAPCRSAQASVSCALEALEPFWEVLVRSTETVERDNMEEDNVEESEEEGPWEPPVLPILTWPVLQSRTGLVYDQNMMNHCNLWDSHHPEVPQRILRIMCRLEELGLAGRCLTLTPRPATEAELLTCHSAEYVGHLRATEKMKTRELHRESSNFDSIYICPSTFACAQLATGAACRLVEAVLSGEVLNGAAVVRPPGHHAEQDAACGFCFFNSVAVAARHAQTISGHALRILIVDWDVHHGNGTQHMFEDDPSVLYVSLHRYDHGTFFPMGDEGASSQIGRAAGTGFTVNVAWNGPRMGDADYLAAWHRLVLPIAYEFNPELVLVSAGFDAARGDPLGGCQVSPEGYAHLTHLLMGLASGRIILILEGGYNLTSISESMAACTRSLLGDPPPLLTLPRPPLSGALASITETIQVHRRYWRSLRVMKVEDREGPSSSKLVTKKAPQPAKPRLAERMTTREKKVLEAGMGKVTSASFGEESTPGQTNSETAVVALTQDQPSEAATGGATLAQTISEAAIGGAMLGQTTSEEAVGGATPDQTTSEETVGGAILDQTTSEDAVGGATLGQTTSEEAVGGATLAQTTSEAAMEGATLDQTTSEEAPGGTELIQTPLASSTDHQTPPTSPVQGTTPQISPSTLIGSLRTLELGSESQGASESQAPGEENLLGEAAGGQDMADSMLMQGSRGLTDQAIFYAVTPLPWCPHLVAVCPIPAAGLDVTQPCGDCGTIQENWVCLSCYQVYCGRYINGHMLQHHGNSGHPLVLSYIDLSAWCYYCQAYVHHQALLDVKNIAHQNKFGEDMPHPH
Method in brief: (§1)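 Both HDAC1 and HDAC6 (human recombinant, 0.3 μg) tested identically: 10 μM fluorogenic Fluor de Lys-SIRT1 substrate, reaction 60 min at 30° C, developer added for 30 min. IC50 calculated from Ex 360/Em 460 signal over 5-fold serial dilutions.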

[2] = target: T2, human recombinant HDAC1 (Homo sapiens, UniProt Q13547); test: In vitro HDAC enzyme activity inhibition assay, HDAC1 (HDAC Fluorimetric Drug Discovery Kit); format: biochemical; conditions: human recombinant HDAC1, Fluor de Lys-SIRT1 substrate 10 μM, 30° C. for 60 minutes
T2 construct: purchased Enzo Life Sciences, Inc. BML-SE456
Method in brief: as §1

T2 sequence (Q13547 whole entry): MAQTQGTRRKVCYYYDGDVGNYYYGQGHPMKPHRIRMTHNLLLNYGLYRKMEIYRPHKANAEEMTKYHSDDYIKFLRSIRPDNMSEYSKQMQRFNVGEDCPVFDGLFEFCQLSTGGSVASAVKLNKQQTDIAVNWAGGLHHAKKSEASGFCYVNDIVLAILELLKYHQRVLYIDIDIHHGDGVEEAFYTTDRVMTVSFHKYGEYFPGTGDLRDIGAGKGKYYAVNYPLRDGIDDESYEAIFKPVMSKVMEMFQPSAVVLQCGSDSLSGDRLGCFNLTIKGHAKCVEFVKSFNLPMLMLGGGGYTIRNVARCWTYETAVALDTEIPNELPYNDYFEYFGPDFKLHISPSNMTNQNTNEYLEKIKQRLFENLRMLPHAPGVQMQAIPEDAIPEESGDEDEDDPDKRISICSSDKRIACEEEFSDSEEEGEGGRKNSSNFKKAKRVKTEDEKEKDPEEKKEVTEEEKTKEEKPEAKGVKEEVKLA

SMILES | HDAC6 Selectivity (fold) [1] | pIC50 [1] | pIC50 [2]
O=C(C1CCN(C2CCC(F)(F)CC2)CC1)N(Cc1cn2ccc(-c3nnc(C(F)F)o3)cc2n1)c1ccccc1 [Compound 4121, 1-(4,4-difluorocyclohexyl)-N-((7-(5-(difluoromethyl)-1,3,4-oxadiazol-2-yl)imidazo[1,2-a]pyridin-2-yl)methyl)-N-phenylpiperidine-4-carboxamide] | 122 fold | 6.39 | < 4.30
O=C(N1CCN(c2ncccn2)CC1)N(Cc1cn2ccc(-c3nnc(C(F)F)o3)cc2n1)c1ccccc1 [Compound 4049, N-((7-(5-(difluoromethyl)-1,3,4-oxadiazol-2-yl)imidazo[1,2-a]pyridin-2-yl)methyl)-N-phenyl-4-(pyrimidin-2-yl)piperazine-1-carboxamide] | 539 fold | 7.03 | < 4.30
CC(=O)N1CCN(C(=O)N(Cc2cn3ccc(-c4nnc(C(F)F)o4)cc3n2)c2ccccc2)CC1 [Compound 4040, 4-acetyl-N-((7-(5-(difluoromethyl)-1,3,4-oxadiazol-2-yl)imidazo[1,2-a]pyridin-2-yl)methyl)-N-phenylpiperazine-1-carboxamide] | 421 fold | 6.93 | < 4.30
Fc1ccc(Cc2cn3ccc(-c4nnc(C(F)F)o4)cc3n2)cc1 [Compound 3586, 2-(difluoromethyl)-5-(2-(4-fluorobenzyl)imidazo[1,2-a]pyridin-7-yl)-1,3,4-oxadiazole] | 151 fold | 6.48 | < 4.30
FC(F)c1nnc(-c2ccn3cc(CNc4cccnc4)nc3c2)o1 [Compound 3675, N-((7-(5-(difluoromethyl)-1,3,4-oxadiazol-2-yl)imidazo[1,2-a]pyridin-2-yl)methyl)pyridin-3-amine] | 401 fold | 6.90 | < 4.30
CS(=O)(=O)c1ccc(NCc2cn3ccc(-c4nnc(C(F)F)o4)cc3n2)cc1 [Compound 3674, N-((7-(5-(difluoromethyl)-1,3,4-oxadiazol-2-yl)imidazo[1,2-a]pyridin-2-yl)methyl)-4-(methylsulfonyl)aniline] | 128 fold | 6.41 | < 4.30
CCC(=O)N1CCC(C(=O)N(Cc2cn3ccc(-c4nnc(C(F)F)o4)cc3n2)c2ccccc2)CC1 [Compound 4123, N-((7-(5-(difluoromethyl)-1,3,4-oxadiazol-2-yl)imidazo[1,2-a]pyridin-2-yl)methyl)-N-phenyl-1-propionylpiperidine-4-carboxamide] | 163 fold | 6.51 | < 4.30
Fc1ccc(NCc2cn3ccc(-c4nnc(C(F)F)o4)cc3n2)cn1 [Compound 3676, N-((7-(5-(difluoromethyl)-1,3,4-oxadiazol-2-yl)imidazo[1,2-a]pyridin-2-yl)methyl)-6-fluoropyridin-3-amine] | 354 fold | 6.85 | < 4.30
Fc1ccc(OCc2cn3ccc(-c4nnc(C(F)F)o4)cc3n2)cc1F [Compound 3723, 2-(difluoromethyl)-5-(2-((3,4-difluorophenoxy)methyl)imidazo[1,2-a]pyridin-7-yl)-1,3,4-oxadiazole] | 174 fold | 6.62 | < 4.30
FC(F)c1nnc(-c2ccn3cc(Cc4ccc5c(c4)OCO5)nc3c2)o1 [Compound 3596, 2-(2-(benzo[d][1,3]dioxol-5-ylmethyl)imidazo[1,2-a]pyridin-7-yl)-5-(difluoromethyl)-1,3,4-oxadiazole] | 160 fold | 6.50 | < 4.30
CN(Cc1cn2ccc(-c3nnc(C(F)F)o3)cc2n1)c1ccccc1 [Compound 3725, N-((7-(5-(difluoromethyl)-1,3,4-oxadiazol-2-yl)imidazo[1,2-a]pyridin-2-yl)methyl)-N-methylaniline] | 282 fold | 6.75 | < 4.30
O=C(C1CCC1)N1CCN(C(=O)N(Cc2cn3ccc(-c4nnc(C(F)F)o4)cc3n2)c2cccc(F)c2)CC1 [Compound 4095, 4-(cyclobutanecarbonyl)-N-((7-(5-(difluoromethyl)-1,3,4-oxadiazol-2-yl)imidazo[1,2-a]pyridine-2-yl)methyl)-N-(3-fluorophenyl)piperazine-1-carboxamide] | 185 fold | 6.57 | < 4.30

Other lines, results leading:

HDAC6 Selectivity (fold) [1] | pIC50 [1] | pIC50 [2] | SMILES
61 fold | 6.09 | < 4.30 | O=C(CO)N1CC(C(=O)N(Cc2cn3ccc(-c4nnc(C(F)F)o4)cc3n2)c2ccccc2)C1 [Compound 4169, N-((7-(5-(difluoromethyl)-1,3,4-oxadiazol-2-yl)imidazo[1,2-a]pyridin-2-yl)methyl)-1-(2-hydroxyacetyl)-N-phenylazetidine-3-carboxamide]
403 fold | 6.91 | < 4.30 | CC(C)N1CCC(C(=O)N(Cc2cn3ccc(-c4nnc(C(F)F)o4)cc3n2)c2cccc(F)c2)CC1 [Compound 4139, N-((7-(5-(difluoromethyl)-1,3,4-oxadiazol-2-yl)imidazo[1,2-a]pyridin-2-yl)methyl)-N-(3-fluorophenyl)-1-isopropylpiperidine-4-carboxamide]
141 fold | 6.45 | < 4.30 | O=C(C1COC1)N1CC(C(=O)N(Cc2cn3ccc(-c4nnc(C(F)F)o4)cc3n2)c2ccccc2)C1 [Compound 4171, N-((7-(5-(difluoromethyl)-1,3,4-oxadiazol-2-yl)imidazo[1,2-a]pyridin-2-yl)methyl)-1-(oxetan-3-carbonyl)-N-phenylazetidine-3-carboxamide]
140 fold | 6.45 | < 4.30 | O=C(C1CN(C2CCC2)C1)N(Cc1cn2ccc(-c3nnc(C(F)F)o3)cc2n1)c1ccccc1 [Compound 4162, 1-cyclobutyl-N-((7-(5-(difluoromethyl)-1,3,4-oxadiazol-2-yl)imidazo[1,2-a]pyridin-2-yl)methyl)-N-phenylazetidine-3-carboxamide]
147 fold | 6.47 | < 4.30 | O=C(CO)N1CCC(C(=O)N(Cc2cn3ccc(-c4nnc(C(F)F)o4)cc3n2)c2ccccc2)CC1 [Compound 4124, N-((7-(5-(difluoromethyl)-1,3,4-oxadiazol-2-yl)imidazo[1,2-a]pyridin-2-yl)methyl)-1-(2-hydroxyacetyl)-N-phenylpiperidine-4-carboxamide]
152 fold | 6.48 | < 4.30 | O=C(C1CCC1)N1CCC(C(=O)N(Cc2cn3ccc(-c4nnc(C(F)F)o4)cc3n2)c2ccccc2)CC1 [Compound 4125, 1-(cyclobutanecarbonyl)-N-((7-(5-(difluoromethyl)-1,3,4-oxadiazol-2-yl)imidazo[1,2-a]pyridine-2-yl)methyl)-N-phenylpiperidine-4-carboxamide]
121 fold | 6.38 | < 4.30 | O=C(C1CN(C2CCOCC2)C1)N(Cc1cn2ccc(-c3nnc(C(F)F)o3)cc2n1)c1ccccc1 [Compound 4165, N-((7-(5-(difluoromethyl)-1,3,4-oxadiazol-2-yl)imidazo[1,2-a]pyridin-2-yl)methyl)-N-phenyl-1-(tetrahydro-2H-pyran-4-yl) azetidine-3-carboxamide]
122 fold | 6.39 | < 4.30 | O=C(C1CN(C2COC2)C1)N(Cc1cn2ccc(-c3nnc(C(F)F)o3)cc2n1)c1ccccc1 [Compound 4163, N-((7-(5-(difluoromethyl)-1,3,4-oxadiazol-2-yl)imidazo[1,2-a]pyridin-2-yl)methyl)-1-(oxetan-3-yl)-N-phenylazetidine-3-carboxamide]
